{
  "source": "patent US10183022B2",
  "about": "“Pharmaceutical composition for treating ulcerative colitis” (EA Pharma Co., Ltd., priority 2014, dated 2019)",
  "test_system": "ulcerative colitis patients in an active stage",
  "assay": "Clinical study, 960 mg orally 3 times a day for 8 weeks: subscore for mucosal finding (large intestine endoscopic examination), mucosal remission rate",
  "format": "in vivo, human",
  "parameters": "Cases by subscore for mucosal finding, figure in parentheses: unit not given here",
  "protocol": "The compound of Example 1 or the compound of Comparative Example 1 was orally administered after meals 3 times a day. The number of the given tablets was 8 per administration (i.e., the amount of the compound (1) of Example 1 administered was 960 mg per administration). The administration period was 8 weeks. The compounds were administered until the timing after the breakfast on the day before the assessment day at Week 8.\n(3) Mucosal Finding (Large Intestine Endoscopic Examination) [Investigation Timings: Weeks 0 and 8 (or Discontinuation Time)]\nThe investigators or sub-investigators conducted the endoscopic examination on the large intestine, and checked the state of the large intestinal mucosa.\nThe endoscopic examination was conducted during a time from 7 days before Week 8 (or discontinuation time) until a medical interview at Week 8 (or discontinuation time). Note that the endoscopic examination on the large intestine at Week 8 (or discontinuation time) was conducted by the same physician at Week 0 when the situation allowed.\nThe assessment at the site served as the “subscore for mucosal finding” of the Mayo score. At Week 8 (or discontinuation time) also, the same site as that at Week 0 was assessed as the “subscore for mucosal finding” of the Mayo score.\nA mucosal remission rate is a proportion of subjects each having a Mayo score with a subscore for mucosal finding of 1 point or less.",
  "data": [
    {"smiles": "COC(=O)[C@H](Cc1ccc(-n2c(=O)c3cc(N(C)C)ccc3n(C)c2=O)cc1)NC(=O)c1c(Cl)cccc1Cl", "note": "[Example 1, methyl(2S)-2-(2,6-dichlorobenzamide)-3-{4-[6-(dimethylamino)-1-methyl-2,4-dioxo-1,4-dihydroquinazolin-3(2H)-yl]phenyl}propanoate]", "values": [
      {"measurement": "Cases by subscore for mucosal finding, figure in parentheses", "setting": "Week 0, score 2", "value": 88.2},
      {"measurement": "Number of cases by subscore for mucosal finding", "setting": "Week 0, score 2", "value": 45},
      {"measurement": "Cases by subscore for mucosal finding, figure in parentheses", "setting": "Week 0, score 3", "value": 11.8},
      {"measurement": "Number of cases by subscore for mucosal finding", "setting": "Week 0, score 3", "value": 6},
      {"measurement": "Difference in mucosal remission rates, Example 1 vs Comparative Example 1 (placebo)", "setting": "Week 8", "value": 29.4, "unit": "%"},
      {"measurement": "Mucosal remission cases", "setting": "Week 8, 51 cases analyzed", "value": 30},
      {"measurement": "Mucosal remission rate", "setting": "Week 8, all subjects", "value": 58.8, "unit": "%"},
      {"measurement": "Cases by subscore for mucosal finding, figure in parentheses", "setting": "Week 8, score 0", "value": 17.0},
      {"measurement": "Number of cases by subscore for mucosal finding", "setting": "Week 8, score 0", "value": 8},
      {"measurement": "Cases by subscore for mucosal finding, figure in parentheses", "setting": "Week 8, score 1", "value": 46.8},
      {"measurement": "Number of cases by subscore for mucosal finding", "setting": "Week 8, score 1", "value": 22},
      {"measurement": "Cases by subscore for mucosal finding, figure in parentheses", "setting": "Week 8, score 2", "value": 34.0},
      {"measurement": "Number of cases by subscore for mucosal finding", "setting": "Week 8, score 2", "value": 16},
      {"measurement": "Cases by subscore for mucosal finding, figure in parentheses", "setting": "Week 8, score 3", "value": 2.1},
      {"measurement": "Number of cases by subscore for mucosal finding", "setting": "Week 8, score 3", "value": 1},
      {"measurement": "Number of cases, cross tabulation of subscore for mucosal finding", "setting": "Week 8 score 0, Week 0 score 2", "value": 7},
      {"measurement": "Number of cases, cross tabulation of subscore for mucosal finding", "setting": "Week 8 score 0, Week 0 score 3", "value": 1},
      {"measurement": "Number of cases, cross tabulation of subscore for mucosal finding", "setting": "Week 8 score 1, Week 0 score 2", "value": 22},
      {"measurement": "Number of cases, cross tabulation of subscore for mucosal finding", "setting": "Week 8 score 1, Week 0 score 3", "value": 0},
      {"measurement": "Number of cases, cross tabulation of subscore for mucosal finding", "setting": "Week 8 score 2, Week 0 score 2", "value": 13},
      {"measurement": "Number of cases, cross tabulation of subscore for mucosal finding", "setting": "Week 8 score 2, Week 0 score 3", "value": 3},
      {"measurement": "Number of cases, cross tabulation of subscore for mucosal finding", "setting": "Week 8 score 3, Week 0 score 2", "value": 0},
      {"measurement": "Number of cases, cross tabulation of subscore for mucosal finding", "setting": "Week 8 score 3, Week 0 score 3", "value": 1},
      {"measurement": "Mucosal remission rate", "setting": "body weight 50 kg or more and disease period less than 5 years (16/22 cases)", "value": 72.7, "unit": "%"}
    ]}
  ]
}
